Results reported in patent US12636284B2, “Compositions for use in the prevention and/or treatment of intellectual disability and neurodegenerative diseases in a subject with down syndrome” (UNIVERSITA' DEGLI STUDI DI ROMA “LA SAPIENZA”, priority 2021, dated 2026).

What was measured:
Assay type in all cases: in vivo, mouse
[1] = Glucose tolerance test (GTT) at end of treatment; conditions: Ts2Cje mice; sitagliptin 5 mM intranasal, 21 days; 6 h fasting, i.p. glucose 10%
Description: Finally, animals were sacrificed using cervical dislocation.
Furthermore, mice were measured at the beginning and at the end of the treatment to evaluate the length in centimeters (cm). For calculating the body mass surface, the DuBois equation was used: body surface area (m^2)=0.007184×weight ([…])×height ([…]). The body mass index was calculated as the ratio between weight and BSA (gr/m^2). At the end of the treatment, the glucose tolerance test (GTT) was carried out on the four experimental groups. After a fasting period of 6 hours, the animals' basal blood glucose was assessed with a small blood sample from the tail (T0). Subsequently, the same animals were treated with a glucose solution (10%, intraperitoneal injection) and blood glucose was measured with a glucometer (lineD ORO, Bioseven) after 30-60-90-120 minutes.

[2] = tested on: MAPK44/42 and Akt pathway; assay: Western blot of Akt and MAPK44/42 activation in hippocampus
Description: (§1) For the duration of the treatment, the mice were weighed weekly in order to assess any weight changes. After 21 days of treatment, the animals underwent a behavioral test to assess their memory and learning abilities. After the behavioral test, metabolic parameters such as blood glucose (both fasting and under the glycemic curve), body surface area (BSA) and body mass index (BMI) were assessed. Finally, animals were sacrificed using cervical dislocation. The brain and peripheral areas were isolated and collected in liquid nitrogen and subsequently stored at −80° C. until they were used for biochemical analyzes.
(§2) Total protein extracts were prepared from the frontal cortex for human autopsy samples and from the hippocampus for mouse samples, using RIPA solution (pH 7.4) containing TrisHCl (50 mM, pH 7.4), NaCl (150 mM), 1% NP-40, 0.25% sodium deoxycholate, ethylenediamine tetracetic acid (EDTA) (1 mM), and 0.1% sodium dodecyl sulfate (SDS). […] For the rest of the experiments, protein extracts were supplemented with cocktails of protease and phosphatase inhibitors (Sigma Aldrich, St Louis, MO, USA). Brain tissues were homogenized in the solution described above by sonication, and centrifuged at 14,000 rpm for 30 min at 4° C. The supernatant was used to determine total protein concentration by means of the bicinchoninic acid assay (BCA, Pierce, Rockford, IL). […]

[3] = tested on: β-amyloid peptide 1-42; assay: ELISA Aβ 1-42 in hippocampus
Description: The 3x-Tg mouse, an animal model commonly used for the study of Alzheimer's disease (n=2/group), was used as a positive control for the production of β-amyloid 1-42. Briefly, ˜10 mg of hippocampus was homogenized in DEA buffer (10 μL/mg tissue; 0.2% diethanolamine and 50 mM NaCl) to which the protease inhibitor cocktail (1:100; Millipore) was added. The sample was centrifuged at 15,000 rpm for 1 hour 30 min at 4° C., the supernatant was stored for measuring ß-amyloid 1-42 following the instructions given by the kit manufacturer. The calculations for the quantization of β-amyloid were carried out using GraphPad Prism 8.0 software (GraphPad, La Jolla, CA, USA).

[4] = tested on: gephyrin and GABAA-R; assay: Immunofluorescence of gephyrin and GABAA-R co-localization in hippocampus CA3 and CA1; conditions: Ts2Cje mice, confocal microscopy
Description: Brains were placed in 4% paraformaldehyde for 24 hours. Brains were then fixed over the subsequent 48 hours in a 20% sucrose solution. Brain sections were then cut to a thickness of 15 μm using a cryostat (Leica System) and stored in an aqueous solution of PBS containing 0.02% NaN3 at 4° C. until use. Slices thus obtained were mounted on slides and were blocked and permeabilized by blocking solution (10% of normal goat serum and 0.2% Triton X-100 in TBS) for 2 hours.
The following day, the same slices were incubated with a mix of fluorescent secondary antibodies, to evaluate the co-localization of the two proteins, anti-mouse Alexa Fluor 488 nm for gephyrin and anti-rabbit Alexa Fluor 594 nm for GABA α2 (1:1500, Invitrogen, Carlsbad, California, CA, USA) for 2 hours at room temperature. The slices were then washed again and incubated with DAPI nuclear marker (1:10000, Invitrogen, Carlsbad, California, CA, USA). To subtract the non-specific background signal created by the secondary antibody, some sections were incubated only with the secondary antibody. Finally, the sample was sealed with a cover slip via fluorimount (Sigma-Aldrich, St Louis, MO, USA). The acquisition and analysis of brain sections was carried out using Leica TCS SP5× confocal microscopy and ImageJ analysis software.

[5] = tested on: spontaneous neurotransmitter release in Eu mice; assay: Patch-clamp electrophysiology, CA1 neurons of hippocampal sections, euploid mice; conditions: after 21 days intranasal treatment
From the text: (§3) The brain sections containing the hippocampus were obtained from mice belonging to the four experimental groups (Eu Veh, Eu SITA, Ts2 Veh and Ts2 SITA) at 9 months of age after being euthanized by an overdose of isofluorane. Brains were quickly removed and placed in an ice-cold cutting solution containing the following (in mM): 124 NaCl, 3.2 KCl, 1 NaH2PO4, 2 MgCl2, 1 CaCl2), 26 NaHCO3, 10 glucose, 2 Na-pyruvate and 0.6 ascorbic acid, pH 7.4, 95% O2/5% CO2. The brain sections containing the hippocampus ([…]) were cut using a vibratome (VT1000S; Leica Microsystems) and immediately transferred to an incubation chamber filled with ACSF containing the following (in mM): 124 NaCl, 3.2 KCl, 1 NaH2PO4, 1 MgCl2, 2 CaCl2, 26 NaHCO3 and 10 glucose, pH 7.4, 95% O2/5% CO2. Brain sections were allowed to recover at 32° C. for 1 hour before being equilibrated to room temperature. For electrophysiological recordings, brain sections were transferred to a recording chamber constantly perfused with heated ACSF (32° C.) and bubbled with 95% O2/5% CO2. Subsequently, the slices were used for electrophysiological recordings. All electrophysiological recordings were performed using the patch-clamp technique in the whole-cell configuration. […] Membrane capacity and resistance were assessed in the same neurons. […]

[6] = tested on: GABAergic transmission in Ts2Cje mice; assay: Patch-clamp electrophysiology, CA1 neurons of hippocampal sections, Ts2Cje mice; conditions: Ts2Cje mice (Ts+S) vs vehicle-treated Ts2Cje, after 21 days intranasal treatment
From the text: as §3

[7] = tested on: GSK3b protein; assay: Western blot of GSK3b activation (pS9/pT216) in hippocampus; conditions: brains (hippocampus) of Ts2Cje mice
Description: as §1, §2

N[C@@H](CC(=O)N1CCn2c(nnc2C(F)(F)F)C1)Cc1cc(F)c(F)cc1F [sitagliptin, (R)-4-oxo-4-[3-(trifluoromethyl)-5,6-dihydro[1,2,4]triazole[4,3-a]pyrazin-7(8H)-yl]-1-(2,4,5-trifluorophenyl)butan-2-amine]
changes in glucose metabolism indices (GTT) [1]: no phenotypic or morphometric changes or changes in glucose metabolism indices
activation of the cerebral insulin signal, MAPK44/42 ([2]; Western blot p(Thr202/Tyr204)-MAPK44/42): restoration of the activation
activation of the cerebral insulin signal, Akt ([2]; Western blot p(ser473)-Akt): restoration of the activation
Ab (beta-amyloid 1-42) levels [3]: reduction
clusters of gephyrin and GABAA-R at the synaptic level [4]: reduction of the clusters of gephyrin and GABAA-R
frequency and extent of spontaneous release of neurotransmitters [5]: no effect
spontaneous release rate of the neurotransmitter, CA1 hippocampal neurons [6]: completely reverts the increase in the spontaneous release rate of the neurotransmitter
activation of the GSK3b protein [7]: increased activation
